In patent US11339140B2, “Compositions and methods comprising substituted 2-aminoimidazoles” (Curza Global, LLC, priority 2017, dated 2022):
Values after ≈ are worked out from the molar mass of the structure shown.

Assays:
[1] = system: breast cancer; assay: cancer-selective cell death with Zn2+; assay type: cell-based; conditions: caspase-independent mechanism
[2] = system: primary metastatic cells derived from breast cancer patients; assay: activity against primary metastatic cells derived from breast cancer patients; assay type: cell-based, human; conditions: patients treated with multiple frontline chemotherapeutics
[3] = system: mouse mammary tumor model; assay: mouse mammary tumor model; assay type: in vivo
[4] = system: Candida albicans; conditions: cited from earlier work
[5] = system: Mycobacterium tuberculosis; conditions: cited from earlier work

Row | SMILES | synergy with Zn2+ in inducing cancer-selective cell death [1] | efficacy against primary metastatic cells from breast cancer patients [2] | in vivo efficacy [3] | MIC100 against Candida albicans [4] [µM] | IC50 against Mycobacterium tuberculosis [5] [µg/mL]
1 | COc1ccc(-c2c(Cc3ccccc3)[nH]/c(=N\C(=O)c3ccccc3F)n2C)cc1 [ZNA] | synergizes strongly with Zn^2+ to induce cancer-selective cell death | effective | in vivo efficacy was established | – | –
2 | COc1ccc(Cc2nc(NC3=NC(=O)N(C)C3=O)n(C)c2Cc2ccc(O)cc2)cc1 [Naamidine A] | – | – | – | 0.78 (≈ 0.338 µg/mL) | 0.41 (≈ 0.946 µM)
